This note sets out measurements from the NIST ThermoML archive (doi:10.1021/je100033s).

The conditions of series [1]: Liquid; for mass density: 101.33 kPa, Pycnometric method; for Normal boiling temperature: Ebulliometric method (Recirculating still).
The nature of series [2]: refractive index (Na D-line) (dimensionless). The note with it: 101.33 kPa, Liquid, Standard Abbe refractometry.

Numbers after ± are expanded uncertainties.

A word on the mass density: it is mass per unit of volume. The refractive index is the speed of light in vacuum divided by its phase velocity in the sample. As to `CC#N` [acetonitrile], the mass density in series [1] (293.1 K) was found to be 783.1 ± 0.7 kg/m3. The Normal boiling temperature in series [1] turned out to be 81.50 ± 0.2 °C. In addition, the refractive index in series [2] (293.1 K) stood at 1.3449 ± 0.0007.

Turning to `C[S+](C)[O-]` [dimethyl sulfoxide], in series [1] (298.1 K), the mass density turned out to be 1096.1 ± 1 kg/m3. Also, in series [1], the Normal boiling temperature is 188.91 ± 0.2 °C. Moreover, the refractive index in series [2] (298.1 K) amounted to 1.4775 ± 0.0007.

Turning to `CCCO` [propan-1-ol], the mass density in series [1] (293.1 K) is 804 ± 0.7 kg/m3. Further, the Normal boiling temperature in series [1] is 97.09 ± 0.2 °C. For the same molecule, in series [2] (293.1 K), the refractive index was found to be 1.386 ± 0.0007.
